Source: publication PMC5587909, “Inhibition of the ATP Synthase Eliminates the Intrinsic Resistance of Staphylococcus aureus towards Polymyxins” (mBio, 2017)
Values after ≈ are worked out from the molar mass of the structure shown. Bridge positions count the residues as written; N and C are the ends. Square brackets hold non-standard residues; d marks the D form. Peptide text beside a SMILES is read from it. * marks the point of attachment. X1 = CC[C@H](C)CCCCC(=O)*; Dab = NCC[C@H](N)C(=O)O

Columns and labels:
[1] = tested on: S. aureus JE2 (wild type); test: microbe, parasite or virus in culture; settings: Etest on TSA, 37°C, 22 h; wild type S. aureus JE2
Excerpt: (§1) Staphylococcus aureus is intrinsically resistant to the clinically approved cationic antimicrobial peptides polymyxin B (PMB) and colistin ([1], [16]). […] The MIC for PMB was subsequently determined using Etests for the identified mutants.
(§2) The strains used in this study include S. aureus strain JE2 (plasmid-cured derivative of USA300 LAC) and all derivative strains within the Nebraska Transposon Mutant Library (NTML), consisting of 1,920 unique transposon mutants with inactivation of nonessential genes ([15]). The bursa aurealis transposon used to create the collection contains the resistance cassette ermB, which confers resistance to erythromycin ([15]). Additionally we used S. aureus SA113 and two derivatives, SA113 ΔdltA ([9]) and SA113 ΔmprF ([10]). All bacterial strains were cultured at 37°C in tryptic soy broth (TSB) or on tryptic soy agar (TSA), with antimicrobial agents added as indicated. Two methods have been employed to determine MICs to various antimicrobial agents. (i) A 2-fold broth microdilution assay in TSB (100 µl) with an initial inoculum of approximately 5 × 10^5 cells/ml was employed to determine the MICs of polymyxin B sulfate (Sigma), gallidermin (Santa Cruz Biotechnology), nisin (Sigma), bacitracin (Sigma), and LL-37 (Isca Biochemicals). […] The MIC was determined upon incubation at 37°C for 22 h. […]

[2] = tested on: S. aureus JE2 vraF transposon mutant (SAUSA300_0647); test: microbe, parasite or virus in culture; settings: Etest on TSA
Excerpt: as §1, §2

[3] = tested on: S. aureus JE2 vraG transposon mutant (SAUSA300_0648); test: microbe, parasite or virus in culture; settings: Etest on TSA
Excerpt: as §1, §2

[4] = tested on: S. aureus JE2 atpB transposon mutant (SAUSA300_2064); format: cell-based, Staphylococcus aureus; settings: Etest on TSA
Excerpt: (§3) Staphylococcus aureus is intrinsically resistant to the clinically approved cationic antimicrobial peptides polymyxin B (PMB) and colistin ([1], [16]). […] The MIC for PMB was subsequently determined using Etests for the identified mutants. Nineteen mutants were confirmed to be at least 2-fold more susceptible than the WT (Table 1). As expected, we identified transposon insertions in graS, graR, vraF, and vraG, corroborating previous work on these determinants in S. aureus in relation to increased PMB susceptibility ([12]).
(§4) The strains used in this study include S. aureus strain JE2 (plasmid-cured derivative of USA300 LAC) and all derivative strains within the Nebraska Transposon Mutant Library (NTML), consisting of 1,920 unique transposon mutants with inactivation of nonessential genes ([15]). The bursa aurealis transposon used to create the collection contains the resistance cassette ermB, which confers resistance to erythromycin ([15]). Additionally we used S. aureus SA113 and two derivatives, SA113 ΔdltA ([9]) and SA113 ΔmprF ([10]). All bacterial strains were cultured at 37°C in tryptic soy broth (TSB) or on tryptic soy agar (TSA), with antimicrobial agents added as indicated. Two methods have been employed to determine MICs to various antimicrobial agents. (i) A 2-fold broth microdilution assay in TSB (100 µl) with an initial inoculum of approximately 5 × 10^5 cells/ml was employed to determine the MICs of polymyxin B sulfate (Sigma), gallidermin (Santa Cruz Biotechnology), nisin (Sigma), bacitracin (Sigma), and LL-37 (Isca Biochemicals). (ii) An Etest (BioMérieux) performed on TSA plates was employed to determine MICs for polymyxin B, colistin, ciprofloxacin, oxacillin, linezolid, gentamicin, vancomycin, and daptomycin. The MIC was determined upon incubation at 37°C for 22 h. When indicated, the Etest (BioMérieux) was performed on Mueller-Hinton agar plates (cation adjusted for calcium and magnesium).

[5] = tested on: S. aureus JE2 atpG transposon mutant (SAUSA300_2059); format: cell-based, Staphylococcus aureus; settings: Etest on TSA
Excerpt: as §3, §4

[6] = tested on: S. aureus JE2 atpH transposon mutant (SAUSA300_2061); format: cell-based, Staphylococcus aureus; settings: Etest on TSA
Excerpt: as §3, §4

[7] = tested on: S. aureus JE2 cbiO transposon mutant (SAUSA300_2176); format: cell-based, Staphylococcus aureus; settings: Etest on TSA, 37°C, 22 h
Excerpt: as §3, §4

[8] = tested on: S. aureus JE2 graS transposon mutant (SAUSA300_0646); format: cell-based, Staphylococcus aureus; settings: Etest on TSA
Excerpt: as §3, §4

[9] = tested on: S. aureus JE2 lspA transposon mutant (SAUSA300_1089); format: cell-based, Staphylococcus aureus; settings: Etest on TSA, 37°C, 22 h
Excerpt: as §3, §4

[10] = tested on: S. aureus JE2 transposon mutant SAUSA300_0918 (diacylglycerol glucosyltransferase); format: cell-based, Staphylococcus aureus; settings: Etest on TSA, 37°C, 22 h
Excerpt: as §3, §4

[11] = tested on: S. aureus JE2 transposon mutant SAUSA300_0980 (hypothetical protein); format: cell-based, Staphylococcus aureus; settings: Etest on TSA, 37°C, 22 h
Excerpt: as §3, §4

[12] = tested on: S. aureus JE2 transposon mutant SAUSA300_1254 (hypothetical protein); format: cell-based, Staphylococcus aureus; settings: Etest on TSA, 37°C, 22 h
Excerpt: as §3, §4

[13] = tested on: S. aureus JE2 transposon mutant SAUSA300_1495 (hypothetical protein); format: cell-based, Staphylococcus aureus; settings: Etest on TSA, 37°C, 22 h
Excerpt: as §3, §4

[14] = tested on: S. aureus JE2 transposon mutant SAUSA300_1785 (putative ABC transporter protein EcsB); format: cell-based, Staphylococcus aureus; settings: Etest on TSA, 37°C, 22 h
Excerpt: as §3, §4

[15] = tested on: S. aureus JE2 transposon mutant SAUSA300_1802 (hypothetical protein); format: cell-based, Staphylococcus aureus; settings: Etest on TSA, 37°C, 22 h
Excerpt: as §3, §4

[16] = tested on: S. aureus JE2 trkA transposon mutant (SAUSA300_0988); format: cell-based, Staphylococcus aureus; settings: Etest on TSA, 37°C, 22 h
Excerpt: as §3, §4

[17] = tested on: S. aureus JE2 vraS transposon mutant (SAUSA300_1866); format: cell-based, Staphylococcus aureus; settings: Etest on TSA, 37°C, 22 h
Excerpt: as §3, §4

[18] = tested on: S. aureus JE2 yajC transposon mutant (SAUSA300_1594); format: cell-based, Staphylococcus aureus; settings: Etest on TSA, 37°C, 22 h
Excerpt: as §3, §4

CC[C@H](C)CCCCC(=O)N[C@@H](CCN)C(=O)N[C@H](C(=O)N[C@@H](CCN)C(=O)N[C@H]1CCNC(=O)[C@H]([C@@H](C)O)NC(=O)[C@H](CCN)NC(=O)[C@H](CCN)NC(=O)[C@H](CC(C)C)NC(=O)[C@@H](Cc2ccccc2)NC(=O)[C@H](CCN)NC1=O)[C@@H](C)O [Polymyxin B, polymyxin B] (X1-[Dab]T[Dab][Dab][Dab][dF]L[Dab][Dab]T; lactam 4-C (inferred); N-terminus assumed)
MIC [1]: 128 µg/mL (≈ 106 µM)
MIC ([2]; 37°C, 22 h, vraF mutant): 16 µg/mL (≈ 13.3 µM)
fold reduction in MIC / increased sensitivity relative to WT ([2]; vraF mutant vs WT JE2): 8 fold
MIC ([3]; 37°C, 22 h, vraG mutant): 16 µg/mL (≈ 13.3 µM)
fold reduction in MIC / increased sensitivity relative to WT ([3]; vraG mutant vs WT JE2): 8 fold
MIC ([4]; 37°C, 22 h, atpB mutant): 16 µg/mL (≈ 13.3 µM)
fold reduction in MIC relative to WT ([4]; atpB mutant vs WT JE2): 8 fold
MIC ([5]; 37°C, 22 h, atpG mutant): 16 µg/mL (≈ 13.3 µM)
fold reduction in MIC relative to WT ([5]; atpG mutant vs WT JE2): 8 fold
MIC ([6]; 37°C, 22 h, atpH mutant): 16 µg/mL (≈ 13.3 µM)
fold reduction in MIC relative to WT ([6]; atpH mutant vs WT JE2): 8 fold
MIC [7]: 48 µg/mL (≈ 39.9 µM)
MIC ([8]; 37°C, 22 h, graS mutant): 24 µg/mL (≈ 19.9 µM)
fold reduction in MIC relative to WT ([8]; graS mutant vs WT JE2): 8 fold
MIC [9]: 64 µg/mL (≈ 53.2 µM)
MIC [10]: 64 µg/mL (≈ 53.2 µM)
MIC [11]: 48 µg/mL (≈ 39.9 µM)
MIC [12]: 48 µg/mL (≈ 39.9 µM)
MIC [13]: 64 µg/mL (≈ 53.2 µM)
MIC [14]: 48 µg/mL (≈ 39.9 µM)
MIC [15]: 64 µg/mL (≈ 53.2 µM)
MIC [16]: 48 µg/mL (≈ 39.9 µM)
MIC [17]: 64 µg/mL (≈ 53.2 µM)
MIC [18]: 64 µg/mL (≈ 53.2 µM)
